In US20040048350A1 (priority 2001, published 2004) one finds Ki data, which are given here for one compound.

Test [1] addresses E. coli RNAP holoenzyme (Escherichia coli, UniProt P0A8V2). The test is described as follows: Transcription assay, T7A1 promoter template, rifampicin inhibition of E. coli RNAP holoenzyme. The settings on record: CpA primer, 37° C., read-out: Ki (estimated from the rifampicin concentration where the production of long transcripts was inhibited by 50%). The test is classed as biochemical. The text has this: (§1) FIG. 2a depicts autoradiographs showing the radioactive RNA produced by Taq (lanes 1-7) and E. coli (lanes 8-13) RNAP holoenzymes transcribing a template containing the T7 A1 promoter and the tR2 terminator, analyzed on a 15% polyacrylamide gel and quantitated by phosphorimagery. In the absence of rifampicin (lanes 1 and 8), the major RNA products from each RNAP correspond to a trimeric abortive product (CpApU), a 105 nucleotide terminated transcript (Term), and a 127 nucleotide runoff transcript (Run off). Lanes 2-7 and 9-13 show the effects of increasing concentrations of rifampicin. […] Rif-nucleotide compounds (Rif-(CH2)n-Ap) with different linker lengths, n (indicated above each lane) were bound to RNAP, then extended in a specific transcription reaction with α-[^32P]UTP by the RNAP catalytic activity. The products were analyzed on a 23% polyacrylamide gel, visualized by autoradiography, and quantitated by phosphorimagery.
(§2) The transcription assay comparing rifampicin inhibition of E.coli and Taq RNAPs (FIG. 2a) was performed as previously described [Nudler et al., Science 265:793-796 (1994)]. Briefly, 0.1 pmol of purified Taq core RNAP [Zhang et al., Cell 98:811-824 (1999); U.S. Ser. No. 09/396,651, Filed Sep. […] Radioactive RNA products were analyzed on a 15% polyacrylamide sequencing gel.

The target of test [2] is T1, Taq RNAP holoenzyme (Thermus aquaticus, UniProt Q9KWU7).
T1 construct: Taq core RNAP purified from Taq cells; made in house; host or cells: core: purified natively from Thermus aquaticus cells; σA: recombinant in E. coli
The test is described as follows: Transcription assay, T7A1 promoter template, rifampicin inhibition of Taq RNAP holoenzyme. The test is classed as biochemical. The following applies: CpA primer, 37° C., read-out: Ki (estimated from the rifampicin concentration where the production of long transcripts was inhibited by 50%).
From the text: as §1, §2

On to `CO[C@H]1/C=C/O[C@@]2(C)Oc3c(C)c(O)c4c(O)c(c(/C=N/N5CCN(C)CC5)c(O)c4c3C2=O)NC(=O)/C(C)=C\C=C\[C@H](C)[C@H](O)[C@@H](C)[C@@H](O)[C@@H](C)[C@H](OC(C)=O)[C@@H]1C` [rifampicin], for which the Ki was ~0.1 µM in test [1] and ~10 µM in test [2].
